Experimental data reported in PubChem BioAssay AID1963973 (Molecular Pharmacology Branch, DTP, NCI, 2024).

Test system: 883617-216-R-J1-PDC tumor spheroids, viability
Assay: Anticancer human tumor 883617-216-R-J1-PDC patient-derived bladder carcinoma cell line growth inhibition [PI3K]
Conditions: spheroids with HUVEC and MSC; for IC50: curve of first compound; for viability, T/C: stronger effect = lower value
Method in brief: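 High-throughput combination screen: PI3K inhibitors crossed with targeted small molecules on complex spheroids of tumor cells, HUVEC and MSCs at 37 degrees C, 5% CO2. Top concentration was at or near clinical Cmax (otherwise 10 microM), with half-log decrements.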

[1] = second compound 0.00316 µM, first compound 0.0316 µM
[2] = second compound 0.00316 µM, first compound 0.1 µM
[3] = second compound 0.00316 µM, first compound 0.316 µM
[4] = second compound 0.00316 µM, first compound 1 µM
[5] = second compound 0.00316 µM, first compound 3.16 µM
[6] = second compound 0.00316 µM, first compound 10 µM
[7] = second compound 0.01 µM, first compound 0.0316 µM
[8] = second compound 0.01 µM, first compound 0.1 µM
[9] = second compound 0.01 µM, first compound 0.316 µM
[10] = second compound 0.01 µM, first compound 1 µM
[11] = second compound 0.01 µM, first compound 3.16 µM
[12] = second compound 0.01 µM, first compound 10 µM
[13] = second compound 0.0316 µM, first compound 0.0316 µM
[14] = second compound 0.0316 µM, first compound 0.1 µM
[15] = second compound 0.0316 µM, first compound 0.316 µM
[16] = second compound 0.0316 µM, first compound 1 µM
[17] = second compound 0.0316 µM, first compound 3.16 µM
[18] = second compound 0.0316 µM, first compound 10 µM
[19] = second compound 0.1 µM, first compound 0.0316 µM
[20] = second compound 0.1 µM, first compound 0.1 µM
[21] = second compound 0.1 µM, first compound 0.316 µM
[22] = second compound 0.1 µM, first compound 1 µM
[23] = second compound 0.1 µM, first compound 3.16 µM
[24] = second compound 0.1 µM, first compound 10 µM
[25] = second compound 0.316 µM, first compound 0.0316 µM
[26] = second compound 0.316 µM, first compound 0.1 µM
[27] = second compound 0.316 µM, first compound 0.316 µM
[28] = second compound 0.316 µM, first compound 1 µM
[29] = second compound 0.316 µM, first compound 3.16 µM
[30] = second compound 0.316 µM, first compound 10 µM
[31] = second compound 1 µM, first compound 0.0316 µM
[32] = second compound 1 µM, first compound 0.1 µM
[33] = second compound 1 µM, first compound 0.316 µM
[34] = second compound 1 µM, first compound 1 µM
[35] = second compound 1 µM, first compound 3.16 µM
[36] = second compound 1 µM, first compound 10 µM
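Note: spheroids exposed to agents for 7 days before the viability read.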

C#Cc1c(F)ccc2cc(O)cc(-c3ncc4c(N5CC6CCC(C5)N6)nc(OCC56CCCN5CC(F)C6)nc4c3F)c12 (centres undefined) + COc1c(OCCCN2CCOCC2)ccc2c3n(c(=NC(=O)c4cnc(N)nc4)nc12)CCN3
IC50 (second compound 0.00316 µM): > 10000 nM
IC50 (second compound 0.01 µM): 4880 nM
IC50 (second compound 0.0316 µM): < 31.6 nM
IC50 (second compound 0.1 µM): < 31.6 nM
IC50 (second compound 0.316 µM): < 31.6 nM
IC50 (second compound 1 µM): < 31.6 nM
viability, T/C [1]: 84.7%
viability, T/C [2]: 99.8%
viability, T/C [3]: 88.7%
viability, T/C [4]: 91.3%
viability, T/C [5]: 80%
viability, T/C [6]: 52.1%
viability, T/C [7]: 64.1%
viability, T/C [8]: 64.8%
viability, T/C [9]: 78.9%
viability, T/C [10]: 67.4%
viability, T/C [11]: 55.5%
viability, T/C [12]: 41%
viability, T/C [13]: 37%
viability, T/C [14]: 45.5%
viability, T/C [15]: 34.4%
viability, T/C [16]: 34%
viability, T/C [17]: 33.6%
viability, T/C [18]: 22.8%
viability, T/C [19]: 16.4%
viability, T/C [20]: 17.1%
viability, T/C [21]: 14.6%
viability, T/C [22]: 15.6%
viability, T/C [23]: 12.2%
viability, T/C [24]: 11.4%
viability, T/C [25]: 5.31%
viability, T/C [26]: 5%
viability, T/C [27]: 4.47%
viability, T/C [28]: 4.9%
viability, T/C [29]: 3.89%
viability, T/C [30]: 2.71%
viability, T/C [31]: 3.49%
viability, T/C [32]: 3.22%
viability, T/C [33]: 2.69%
viability, T/C [34]: 2.82%
viability, T/C [35]: 2.98%
viability, T/C [36]: 0.66%

C=CC(=O)N1CCN(c2nc(=O)n(-c3c(C)ccnc3C(C)C)c3nc(-c4c(O)cccc4F)c(F)cc23)C(C)C1 (centres undefined) + COc1c(OCCCN2CCOCC2)ccc2c3n(c(=NC(=O)c4cnc(N)nc4)nc12)CCN3
IC50 (second compound 0.00316 µM): < 31.6 nM
IC50 (second compound 0.01 µM): < 31.6 nM
IC50 (second compound 0.0316 µM): < 31.6 nM
IC50 (second compound 0.1 µM): < 31.6 nM
IC50 (second compound 0.316 µM): < 31.6 nM
IC50 (second compound 1 µM): < 31.6 nM
viability, T/C [1]: 54.8%
viability, T/C [2]: 40.3%
viability, T/C [3]: 44%
viability, T/C [4]: 46.3%
viability, T/C [5]: 52.3%
viability, T/C [6]: 53.9%
viability, T/C [7]: 46%
viability, T/C [8]: 34.9%
viability, T/C [9]: 33.4%
viability, T/C [10]: 41.1%
viability, T/C [11]: 43.5%
viability, T/C [12]: 38.7%
viability, T/C [13]: 21.4%
viability, T/C [14]: 19.8%
viability, T/C [15]: 16.6%
viability, T/C [16]: 22.3%
viability, T/C [17]: 24.1%
viability, T/C [18]: 24.5%
viability, T/C [19]: 8.54%
viability, T/C [20]: 3.86%
viability, T/C [21]: 6.45%
viability, T/C [22]: 8.64%
viability, T/C [23]: 10.2%
viability, T/C [24]: 9.28%
viability, T/C [25]: 1.88%
viability, T/C [26]: 1.7%
viability, T/C [27]: 1.81%
viability, T/C [28]: 2.12%
viability, T/C [29]: 2.85%
viability, T/C [30]: 2.77%
viability, T/C [31]: 1.07%
viability, T/C [32]: 0.62%
viability, T/C [33]: 0.69%
viability, T/C [34]: 0.95%
viability, T/C [35]: 1.99%
viability, T/C [36]: 0.95%
